A short description of the data set: DSSTox (CPDBAS) Carcinogenic Potency Database Summary MultiCellCall Results. The note with it: animal carcinogenicity bioassays, multi-cell call summary. The method in brief: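 Summary call drawn from chronic long-term cancer bioassays in rats, mice, hamsters, dogs and nonhuman primates, using the most positive result per sex-species. Score: multispecies=50, multisex=30, multisite=20, summed for combinations.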

Calls of active or inactive are those of the source.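 How the source made its calls: active means tumour findings in long-term animal cancer tests in more than one sex, species or organ; inactive means no tumour finding and more than one negative test.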

On to `C[C@H](CCc1ccccc1)NC[C@H](O)c1ccc(O)c(C(N)=O)c1`, for which the outcome was “inactive; multisex inactive”.

On to `COc1ccc(C(Cl)=C(c2ccc(OC)cc2)c2ccc(OC)cc2)cc1`, for which the outcome was “inactive; multisex inactive”.

Take `CC(=O)OC[C@H]1O[C@H](O[C@]2(COC(C)=O)O[C@H](COC(=O)C(C)C)[C@@H](OC(=O)C(C)C)[C@@H]2OC(=O)C(C)C)[C@H](OC(=O)C(C)C)[C@@H](OC(=O)C(C)C)[C@@H]1OC(=O)C(C)C`: the outcome is “inactive; multisex inactive; multispecies inactive”.

`CC(C)(C)c1cc(C(C)(C)C)c(O)c(C(C)(C)C)c1`: the outcome is “inactive; multisex inactive”.

With `c1cc(OCC2CO2)cc(OCC2CO2)c1` (centres undefined), the outcome is “active; multisex active; multispecies active”.

Consider `CC1=NN(c2ccccc2)C(=O)C1`, for which the outcome was “inactive; multisex inactive; multispecies inactive”.

For the compound `O[C@@H]([C@H](O)[C@@H](O)CBr)[C@@H](O)CBr`, the outcome was “active; multisite active; multisex active; multispecies active”.

In the case of `CCCC/C=N/N(C)C=O`, the outcome is “active; multisite active; multisex active”.

Take `CCN(Cc1cccc(S(=O)(=O)O)c1)c1ccc(C(=C2C=CC(=[N+](CC)Cc3cccc(S(=O)(=O)O)c3)C=C2)c2ccccc2S(=O)(=O)[O-])cc1`: the outcome was “inactive; multisex inactive; multispecies inactive”.

For `CCN(CC)C(=S)S[Te](SC(=S)N(CC)CC)(SC(=S)N(CC)CC)SC(=S)N(CC)CC`, the outcome is “inactive; multisex inactive; multispecies inactive”.

For the compound `c1ccncc1`, the outcome is “active; multisite active; multisex active; multispecies active”.

Consider `CC1=CC(=O)NS(=O)(=O)O1`, for which the outcome is “inactive; multisex inactive”.

With `S=C(SSSSSSC(=S)N1CCCCC1)N1CCCCC1`, the outcome was “inactive; multisex inactive”.

For `N[C@@H](CS)C(=O)O`, the outcome was “inactive; multisex inactive”.

As to `NC(=O)N(CCCO)N=O`, the outcome was “active; multisex active”.

Turning to `O=NN1CCOC1=O`, the outcome is “active; multisite active”.

For `CC(C)CON=O`, the outcome is “active; multisex active; multispecies active”.

In the case of `O=c1[nH]c(=O)n(C2CCCO2)cc1F` (centres undefined), the outcome was “inactive; multisex inactive; multispecies inactive”.

`O=NN1CCCC1c1cccnc1` (centres undefined): the outcome is “active; multisite active; multisex active; multispecies active”.

The values above are taken from PubChem BioAssay AID1205 (EPA DSSTox, 2008).
